Where “and” joins values, the source holds several entries; their conditions need not be identical. Equal values may be shown once. One block for each compound: values may come before it.
Assays:
Assay in all cases: Competitive isoTOP-ABPP, cell lysates
Type in all cases: binding
UBE2S C118 (Q16763) = biological target: T1, UBE2S C118 (Q16763) (Homo sapiens, UniProt Q16763)
T1 sequence (Q16763 1-222): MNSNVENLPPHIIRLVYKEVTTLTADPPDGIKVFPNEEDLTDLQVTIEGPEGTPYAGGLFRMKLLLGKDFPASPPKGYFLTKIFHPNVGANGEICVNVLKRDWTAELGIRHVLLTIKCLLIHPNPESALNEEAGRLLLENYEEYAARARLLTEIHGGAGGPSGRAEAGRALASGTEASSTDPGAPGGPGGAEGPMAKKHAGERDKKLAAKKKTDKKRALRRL

PDIA6 C55 (Q15084) = biological target: T2, PDIA6 C55 (Q15084) (Homo sapiens, UniProt Q15084); conditions: for R value (DMSO/fragment) / isoTOP-ABPP ratio Q15084_C55: 500 μM
T2 sequence (Q15084 20-440): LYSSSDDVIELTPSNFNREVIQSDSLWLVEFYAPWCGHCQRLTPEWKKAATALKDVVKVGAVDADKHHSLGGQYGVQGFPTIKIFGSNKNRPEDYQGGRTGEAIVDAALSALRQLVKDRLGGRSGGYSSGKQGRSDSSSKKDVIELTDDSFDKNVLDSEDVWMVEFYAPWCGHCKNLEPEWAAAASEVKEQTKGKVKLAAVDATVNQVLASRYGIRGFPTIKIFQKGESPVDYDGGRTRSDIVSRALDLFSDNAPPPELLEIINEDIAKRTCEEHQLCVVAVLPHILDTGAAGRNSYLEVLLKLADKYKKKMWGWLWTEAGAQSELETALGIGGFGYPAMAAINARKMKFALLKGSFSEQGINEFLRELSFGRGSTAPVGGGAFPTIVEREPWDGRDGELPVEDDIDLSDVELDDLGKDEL

PDIA6 C190 (Q15084) = biological target: T3, PDIA6 C190 (Q15084) (Homo sapiens, UniProt Q15084)
T3 sequence (Q15084 20-440): T2 sequence (Q15084 20-440)

SMARCC2 C145 (Q8TAQ2) = SMARCC2 C145 (Q8TAQ2) (Homo sapiens, UniProt Q8TAQ2)
Sequence of SMARCC2 C145 (Q8TAQ2) (Q8TAQ2 whole entry): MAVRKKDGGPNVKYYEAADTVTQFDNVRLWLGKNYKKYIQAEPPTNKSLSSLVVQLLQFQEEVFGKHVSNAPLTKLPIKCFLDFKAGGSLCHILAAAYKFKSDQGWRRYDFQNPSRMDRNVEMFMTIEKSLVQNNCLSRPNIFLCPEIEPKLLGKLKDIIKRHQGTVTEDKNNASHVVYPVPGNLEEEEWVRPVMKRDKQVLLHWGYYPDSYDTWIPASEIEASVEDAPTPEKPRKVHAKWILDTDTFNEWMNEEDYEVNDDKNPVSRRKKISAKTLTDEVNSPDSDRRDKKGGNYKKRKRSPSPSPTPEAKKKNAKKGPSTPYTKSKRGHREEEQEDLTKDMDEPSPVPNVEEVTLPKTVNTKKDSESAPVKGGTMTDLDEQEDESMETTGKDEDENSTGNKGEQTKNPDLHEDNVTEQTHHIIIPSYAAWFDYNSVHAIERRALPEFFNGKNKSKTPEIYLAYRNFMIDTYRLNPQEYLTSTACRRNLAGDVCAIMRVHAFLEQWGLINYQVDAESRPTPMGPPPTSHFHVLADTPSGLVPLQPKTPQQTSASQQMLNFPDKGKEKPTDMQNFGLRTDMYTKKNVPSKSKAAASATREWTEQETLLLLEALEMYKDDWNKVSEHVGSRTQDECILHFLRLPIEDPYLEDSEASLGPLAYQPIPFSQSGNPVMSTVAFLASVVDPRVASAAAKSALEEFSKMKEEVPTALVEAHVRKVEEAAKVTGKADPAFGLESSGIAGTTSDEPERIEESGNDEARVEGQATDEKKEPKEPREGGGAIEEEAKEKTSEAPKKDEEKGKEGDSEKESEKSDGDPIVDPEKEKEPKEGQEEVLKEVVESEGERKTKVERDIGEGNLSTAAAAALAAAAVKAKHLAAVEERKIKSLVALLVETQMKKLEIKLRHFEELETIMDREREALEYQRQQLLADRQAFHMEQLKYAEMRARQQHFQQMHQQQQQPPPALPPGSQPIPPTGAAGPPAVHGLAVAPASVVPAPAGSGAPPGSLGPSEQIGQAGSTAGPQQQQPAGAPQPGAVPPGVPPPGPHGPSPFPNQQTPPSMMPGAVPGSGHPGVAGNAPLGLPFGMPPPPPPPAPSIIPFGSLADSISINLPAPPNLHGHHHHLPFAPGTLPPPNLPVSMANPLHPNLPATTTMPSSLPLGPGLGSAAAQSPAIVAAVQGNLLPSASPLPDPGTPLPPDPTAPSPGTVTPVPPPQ

XPO1 C528 (O14980) = XPO1 C528 (O14980) (Homo sapiens, UniProt O14980)
Sequence of XPO1 C528 (O14980) (O14980 whole entry, the tested form may be a part): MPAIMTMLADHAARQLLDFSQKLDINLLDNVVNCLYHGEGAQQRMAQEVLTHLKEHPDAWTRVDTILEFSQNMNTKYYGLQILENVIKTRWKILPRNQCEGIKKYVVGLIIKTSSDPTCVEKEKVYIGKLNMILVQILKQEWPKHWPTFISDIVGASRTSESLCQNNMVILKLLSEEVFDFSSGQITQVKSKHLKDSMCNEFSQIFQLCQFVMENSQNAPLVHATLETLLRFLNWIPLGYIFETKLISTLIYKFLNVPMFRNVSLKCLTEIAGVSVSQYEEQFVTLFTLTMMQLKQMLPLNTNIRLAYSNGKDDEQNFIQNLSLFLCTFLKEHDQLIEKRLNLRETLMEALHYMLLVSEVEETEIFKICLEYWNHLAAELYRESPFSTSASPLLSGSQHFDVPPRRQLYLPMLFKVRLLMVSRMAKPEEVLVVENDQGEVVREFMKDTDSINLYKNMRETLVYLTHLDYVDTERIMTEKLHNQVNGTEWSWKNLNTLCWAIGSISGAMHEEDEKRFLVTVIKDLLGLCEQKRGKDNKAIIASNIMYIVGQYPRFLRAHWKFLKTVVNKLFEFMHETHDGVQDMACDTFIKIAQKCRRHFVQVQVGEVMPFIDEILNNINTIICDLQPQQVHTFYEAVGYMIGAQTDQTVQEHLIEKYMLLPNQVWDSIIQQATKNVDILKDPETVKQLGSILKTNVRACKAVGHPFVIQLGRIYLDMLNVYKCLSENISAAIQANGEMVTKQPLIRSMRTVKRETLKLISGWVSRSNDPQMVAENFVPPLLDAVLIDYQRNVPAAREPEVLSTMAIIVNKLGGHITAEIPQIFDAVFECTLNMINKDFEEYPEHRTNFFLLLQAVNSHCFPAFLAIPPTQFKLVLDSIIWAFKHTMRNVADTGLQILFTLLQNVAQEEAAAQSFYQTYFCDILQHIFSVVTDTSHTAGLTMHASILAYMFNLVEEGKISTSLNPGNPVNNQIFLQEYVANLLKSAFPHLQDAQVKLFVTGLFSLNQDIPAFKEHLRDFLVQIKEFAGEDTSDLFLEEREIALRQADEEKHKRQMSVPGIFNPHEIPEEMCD

GSTP1 C48 (P09211) = GSTP1 C48 (P09211) (Homo sapiens, UniProt P09211); conditions: for R value (DMSO/fragment) / isoTOP-ABPP ratio, P09211_C48: 500 μM
Sequence of GSTP1 C48 (P09211) (P09211 whole entry, the tested form may be a part): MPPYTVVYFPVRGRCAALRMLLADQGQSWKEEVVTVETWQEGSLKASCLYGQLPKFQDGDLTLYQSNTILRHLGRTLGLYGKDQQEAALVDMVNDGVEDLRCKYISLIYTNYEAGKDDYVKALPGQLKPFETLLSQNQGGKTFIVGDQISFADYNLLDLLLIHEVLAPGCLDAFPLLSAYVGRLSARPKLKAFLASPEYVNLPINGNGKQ

XPO1 C34 (O14980) = XPO1 C34 (O14980) (Homo sapiens, UniProt O14980); conditions: for R value (DMSO/fragment) / isoTOP-ABPP ratio, O14980_C34: 500 μM
Sequence of XPO1 C34 (O14980) (O14980 whole entry, the tested form may be a part): as the sequence (O14980 whole entry, the tested form may be a part) above

ACAT1 C119 (P24752) = biological target: T4, ACAT1 C119 (P24752) (Homo sapiens, UniProt P24752); conditions: for R value (DMSO/fragment) / isoTOP-ABPP ratio P24752_C119: 500 μM
T4 sequence (P24752 34-427): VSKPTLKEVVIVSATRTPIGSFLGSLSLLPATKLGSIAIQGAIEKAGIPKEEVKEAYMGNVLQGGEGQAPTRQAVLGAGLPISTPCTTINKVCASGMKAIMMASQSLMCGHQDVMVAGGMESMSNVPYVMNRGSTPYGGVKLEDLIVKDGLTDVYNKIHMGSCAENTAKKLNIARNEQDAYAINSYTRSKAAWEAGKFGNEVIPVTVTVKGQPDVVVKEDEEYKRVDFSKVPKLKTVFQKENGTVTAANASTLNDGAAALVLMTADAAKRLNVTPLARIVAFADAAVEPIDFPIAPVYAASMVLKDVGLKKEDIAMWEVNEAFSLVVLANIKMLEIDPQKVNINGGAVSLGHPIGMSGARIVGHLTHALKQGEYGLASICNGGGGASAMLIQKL

ACAT1 C126 (P24752) = biological target: T5, ACAT1 C126 (P24752) (Homo sapiens, UniProt P24752); conditions: for isoTOP-ABPP ratio, P24752_C126: invitro
T5 sequence (P24752 34-427): T4 sequence (P24752 34-427)

R value (DMSO/fragment) (UBE2S C118 (Q16763); 500 μM, in vitro, MDA-MB-231): 4.2 | R value (DMSO/fragment) (UBE2S C118 (Q16763); 500 μM, invitro, ramos): 6.9 | R value (DMSO/fragment) (PDIA6 C55 (Q15084); in vitro, MDA-MB-231): 6.3 | R value (DMSO/fragment) (PDIA6 C55 (Q15084); invitro, ramos): 7.1 | R value (DMSO/fragment) (PDIA6 C190 (Q15084); 500 μM, invitro, ramos): 15.4 | R value (DMSO/fragment) (SMARCC2 C145 (Q8TAQ2); 500 μM, in vitro, MDA-MB-231): 8.5 | R value (DMSO/fragment) (SMARCC2 C145 (Q8TAQ2); 500 μM, invitro, ramos): 14.0 | R value (DMSO/fragment) (XPO1 C528 (O14980); 500 μM, in vitro, MDA-MB-231): 4.9 | R value (DMSO/fragment) (XPO1 C528 (O14980); 500 μM, invitro, ramos): 3.1 | R value (DMSO/fragment) (GSTP1 C48 (P09211); in vitro, MDA-MB-231): 3.1 | R value (DMSO/fragment) (GSTP1 C48 (P09211); invitro, ramos): 1.6 | R value (DMSO/fragment) (XPO1 C34 (O14980); in vitro, MDA-MB-231): 2.8 | R value (DMSO/fragment) (XPO1 C34 (O14980); invitro, ramos): 4.6 | R value (DMSO/fragment) (ACAT1 C119 (P24752); in vitro, MDA-MB-231): 3.9 | R value (DMSO/fragment) (ACAT1 C119 (P24752); invitro, ramos): 3.2 | R value (DMSO/fragment) (ACAT1 C126 (P24752); 500 μM, in vitro, MDA-MB-231): 20.0
SMILES: COc1ccc2c(c1)CCCN2C(=O)CCl [compound 2]

isoTOP-ABPP ratio, Q16763_C118 (UBE2S C118 (Q16763); 500 μM, invitro, 231): 2.8 | isoTOP-ABPP ratio Q15084_C55 (PDIA6 C55 (Q15084); invitro, 231): 0.9 | isoTOP-ABPP ratio Q15084_C55 (PDIA6 C55 (Q15084); invitro, ramos): 1.1 | isoTOP-ABPP ratio, Q15084_C190 (PDIA6 C190 (Q15084); 500 μM, invitro, ramos): 1.7 | isoTOP-ABPP ratio Q8TAQ2_C145 (SMARCC2 C145 (Q8TAQ2); 500 μM, invitro, ramos): 2.8 | isoTOP-ABPP ratio O14980_C528 (XPO1 C528 (O14980); 500 μM, invitro, 231): 20.0 | isoTOP-ABPP ratio, P09211_C48 (GSTP1 C48 (P09211); invitro, 231): 2.2 | isoTOP-ABPP ratio, P09211_C48 (GSTP1 C48 (P09211); invitro, ramos): 2.4 | isoTOP-ABPP ratio, O14980_C34 (XPO1 C34 (O14980); invitro, 231): 1.1 | isoTOP-ABPP ratio, O14980_C34 (XPO1 C34 (O14980); invitro, ramos): 1.2 | isoTOP-ABPP ratio P24752_C119 (ACAT1 C119 (P24752); invitro, 231): 1.8 | isoTOP-ABPP ratio P24752_C119 (ACAT1 C119 (P24752); invitro, ramos): 2.4 | isoTOP-ABPP ratio, P24752_C126 (ACAT1 C126 (P24752); 500 μM, 231): 0.9 | isoTOP-ABPP ratio, P24752_C126 (ACAT1 C126 (P24752); 500 μM, ramos): 1.3
SMILES: C=CC(=O)N(c1ccccc1)c1ccc(Br)cc1 [compound 5]

isoTOP-ABPP ratio (reactivity profile), Q16763_C118 (UBE2S C118 (Q16763); 500 μm in-vitro ramos): 0.9 | isoTOP-ABPP ratio (reactivity profile), Q16763_C118 (UBE2S C118 (Q16763); 500 μm in-vitro ramos_231): 0.8 | isoTOP-ABPP ratio (reactivity profile), Q15084_C55 (PDIA6 C55 (Q15084); 500 μm in-vitro ramos): 1.2 | isoTOP-ABPP ratio (reactivity profile), Q15084_C55 (PDIA6 C55 (Q15084); 500 μm in-vitro ramos_231): 0.8 and 1.1 | isoTOP-ABPP ratio (reactivity profile), Q15084_C190 (PDIA6 C190 (Q15084); 500 μm in-vitro ramos): 1.1 | isoTOP-ABPP ratio (reactivity profile), Q15084_C190 (PDIA6 C190 (Q15084); 500 μm in-vitro ramos_231): 0.9 | isoTOP-ABPP ratio (reactivity profile), Q8TAQ2_C145 (SMARCC2 C145 (Q8TAQ2); 500 μm in-vitro ramos): 1.2 | isoTOP-ABPP ratio (reactivity profile), Q8TAQ2_C145 (SMARCC2 C145 (Q8TAQ2); 500 μm in-vitro ramos_231): 0.9 | isoTOP-ABPP ratio (reactivity profile), O14980_C528 (XPO1 C528 (O14980); 500 μm in-vitro ramos): 0.8 | isoTOP-ABPP ratio (reactivity profile), O14980_C528 (XPO1 C528 (O14980); 500 μm in-vitro ramos_231): 1.2 and 0.9 | isoTOP-ABPP ratio (reactivity profile), P09211_C48 (GSTP1 C48 (P09211); 500 μm in-vitro ramos): 1.0 | isoTOP-ABPP ratio (reactivity profile), P09211_C48 (GSTP1 C48 (P09211); 500 μm in-vitro ramos_231): 1.3 and 1.0 | isoTOP-ABPP ratio (reactivity profile), O14980_C34 (XPO1 C34 (O14980); 500 μm in-vitro ramos): 1.0 | isoTOP-ABPP ratio (reactivity profile), O14980_C34 (XPO1 C34 (O14980); 500 μm in-vitro ramos_231): 0.9 and 1.0 | isoTOP-ABPP ratio (reactivity profile), P24752_C119 (ACAT1 C119 (P24752); 500 μm in-vitro ramos): 1.0 | isoTOP-ABPP ratio (reactivity profile), P24752_C119 (ACAT1 C119 (P24752); 500 μm in-vitro ramos_231): 0.9 and 1.0 | isoTOP-ABPP ratio (reactivity profile), P24752_C126 (ACAT1 C126 (P24752); 500 μm in-vitro ramos): 1.3 | isoTOP-ABPP ratio (reactivity profile), P24752_C126 (ACAT1 C126 (P24752); 500 μm in-vitro ramos_231): 0.9 and 1.0
SMILES: CC(C)CCOCCNC(=O)CCl [compound 27]

— patent publication US10670605B2, “Cysteine reactive probes and uses thereof” (The Scripps Research Institute, priority 2015, dated 2020)
